Patent US20190083437A1, “S- Methylcysteine Sulfoxide For Prostate Cancer Prevention And Treatment” (QUADRAM INSTITUTE BIOSCIENCE, priority 2016, published 2019)

Tests used:
[1] = SMCSO bioavailability from single dietary supplementation with Beneforte broccoli and stilton soup (plasma and urine over 24 h); format: in vivo, human
Excerpt: Exposure of prostate tissues to S-methylcysteine sulfoxide may occur either through the systemic circulation in the blood stream, or through urinary reflux. Indeed, urinary reflux into prostatic ducts is common knowledge in the field (Kirby R. S. et al. Intra-prostatic urinary reflux: an aetiological factor in abacterial prostatitis. British Journal of Urology 54, 729-731 (1982)). FIGS. 5 and 6 respectively show the plasma concentration and cumulative excretion of S-methylcysteine sulfoxide in urine following consumption of Beneforté™ broccoli (described, for example, in WO99/052345) and Stilton soup containing 1.2 mmoles of S-methylcysteine sulfoxide.
The change in plasma concentration of S-methylcysteine sulfoxide was recorded over 24 hours in ten patients.
Ten patients took part in this study. The total S-methylcysteine sulfoxide excreted represented 23% of that consumed.
A dietary intervention study was carried out on healthy subjects (n=10) whereby a single event of dietary supplementation was carried out with Beneforte™ broccoli and stilton soup, produced according to the recipe as described in Example 1, providing an effective SMCSO dose of 1.2 mmoles. This was followed by urine and blood collection over 24 h. Plasma and urinary concentrations of SMCSO were measured, see FIGS. 5 (plasma) and 6 (urine). SMCSO concentration in blood plasma increased from a baseline level of 0 μM at the start of the 24 h period to a maximum concentration of 24 μM one hour after consumption of the soup. […] The 24 h cumulative urinary concentration was over 100 μmoles SMCSO.

[2] = test system: Human prostate PNT1A cells; test: Cell assay of SMCSO uptake/accumulation in cells (HPLC of whole cell lysates); format: cell-based; settings: 300 μM SMCSO
Description: PNT1A cells were treated with 300μM SMCSO and intracellular levels of SMCSO were quantified following incubation of between 1 h and 72 h. Data shown are means±SD (n=3).
Human prostate PNT1A cells were incubated with 300 μM SMCSO for up to 72 h in triplicate. Whole cell lysates were collected at regular intervals between 0 and 72 h and levels of SMCSO were quantified by HPLC as above. […] Uptake increases up to approximately 30% following 72 h of exposure to SMCSO.

[3] = test system: human prostatic PNT1A cell line; test: ATP levels in prostate cell assay (fluorimetric kit); format: cell-based; settings: SMCSO 100 μM or 200 μM, 24 hours exposure, vs control cells
Description: The concentration of S-methylsulfoxide used in this study (100 μmol to 200 μmop was similar to that found in urine following consumption of 1.0-1.5 mmoles of S-methylcysteine sulfoxide.
Cells of the human prostatic PNT1A cell line were incubated with SMCSO at 100 μM or 200 μM, these concentrations were chosen as they were consistent with the physiological concentrations of SMCSO measured in the human intervention diet study, for example 2-4 hours after consumption of Beneforté™ broccoli soup the concentration of SMCSO in the urine of study subjects ranged from 42.18 μM to 130.17 μM, see Table 1. ATP levels (nmol/mg protein) in control and SMCSO treated cells were measured fluorimetrically using a commercially available kit (Abcam, ab 8335).

prostate tissue = test: Short duration (4-6 weeks) diet intervention study: SMCSO and ADP in prostate biopsy tissue; format: in vivo, human; settings: three 300 g portions per week (6.4 mmoles SMCSO each) for at least 4 weeks, n=9 per arm, p=0.005
Excerpt: A two arm parallel un-blinded short-term intervention with an enhanced dose of broccoli soups was undertaken. The study recruited men who had been diagnosed or were under investigation for prostate cancer and required a transperineal template biopsy as part of their standard clinical care.
Patients recruited onto this study were randomly allocated to one of two arms in which they were required to consume three portions of broccoli and stilton soup per week for at least four weeks prior to their biopsy (i) or to follow their normal diet until the operation date (ii). The broccoli and stilton soups contained glucoraphanin-enriched Beneforte® broccoli. The study was not blinded and involved tissue, blood and urine collection on the same day that patients were scheduled for their diagnostic biopsy. Their habitual intake of cruciferous vegetables and dietary supplements was assessed. […]
SMCSO was measured by following the method described by Bernaert and colleagues (Bernaert, N., et al., Influence of cultivar and harvest time on the amounts of isoalliin and methiin in leek (Allium ampeloprasum var. porrum). J Agric Food Chem, 2012. 60(44): p. 10910-9). […] After centrifugation, the supernatant was diluted with 0.1% formic acid in water, and analysed by LC-MS/MS using an Agilent 6490 mass spectrometer with a photodiode array detector. […]

[4] = within 24 h, radioactive SMCSO to humans; cited from earlier work

Which “concentration of SMCSO in urine (up to)” value ([1]; 0-2 h after consumption, 1.2 mmoles SMCSO) does the source give for S-methylcysteine sulfoxide [SMCSO] here?
The value was “up to 164 uM”.

And the “likely concentration of SMCSO within a single urination” value ([1]; 0-2 h after consumption, estimate)?
The value was over 200 µM.

And the “blood plasma levels at the end of the 24 h period” value ([1]; 1.2 mmoles SMCSO, 24 h)?
The value was “remained elevated above baseline”.

And the “cumulative urinary SMCSO, mean” value ([1]; 2-4 hours after dietary supplementation, 1.2 mmoles SMCSO)?
The value was 71.5 µmol.

And the “24 h cumulative urinary SMCSO” value ([1]; 24 h, 1.2 mmoles SMCSO)?
The value was “over 100 μmoles”.

And the “S-methylcysteine sulfoxide excreted in urine (concentration, up to)” value ([1]; first 0-2 hours, soup containing 1.2 mmoles)?
Its value is “up to 163.9 μM”.

What about the “time of maximum plasma concentration after consumption of the soup” value ([1]; healthy subjects n=10, 1.2 mmoles SMCSO) of the same substance?
Its value is “one”.

And the “maximum SMCSO concentration in blood plasma” value ([1]; healthy subjects n=10, single soup portion providing 1.2 mmoles SMCSO, oral)?
Its value is 24 µM.

What about the “total S-methylcysteine sulfoxide excreted in urine as share of that consumed” value ([1]; ten patients, 1.2 mmoles, cumulative) of the same substance?
The value was 23%.

What about the “cellular uptake of SMCSO (speed)” value [2] of the same substance?
The value was “rapid, as early as 1 h”.

And the “intracellular SMCSO uptake as % of exposure” value ([2]; 72 h of exposure)?
Its value is “approximately 30%”.

And the “intracellular SMCSO level as % of the initial exposure levels” value ([2]; constant from 1 h for at least 24 h)?
The value was 10%.

What about the “cellular concentration of ATP” value [3] of the same substance?
Its value is “reduced”.

And the “SMCSO accumulation in prostate biopsy tissue, intervention vs non-intervention arm” value (prostate tissue)?
The value was “increased accumulation”.

What about the “SMCSO excreted un-metabolised within urine” value [4] of the same substance?
Its value is 6-8%.
